Here are results for nine molecules from patent US7763617B2, “Pyrazolopyridine-4-yl pyridazinone derivatives and addition salts thereof, and PDE inhibitors comprising the same derivatives or salts as active ingredient” (Kyorin Pharmaceutical Co., Ltd., priority 2005, dated 2010).

In one data set the target is T1, PDE10A1 (Homo sapiens, UniProt Q9Y233).
T1 construct: made in house; host or cells: Sf9 insect cells (baculovirus, Bac-to-Bac)
Description: Inhibition of phosphodiesterase activity, [3H]-cAMP hydrolysis, recombinant PDE10A1. It counts as biochemical. Conditions: human recombinant PDE10A1, cAMP 0.2 μmol/L; read-out: IC50(μmol/L) PDE10. The procedure: (§1) RT-PCR was performed to isolate cDNA fragments of PDE3A catalytic domain (indicated as “cat,” hereinafter), PDE4Bcat, PDE5Acat and PDE10A1 from human RNA. Using Gateway system (Invitrogen) and Bac-to-Bac (registered trademark) Baculovirus Expression system (Invitrogen), the isolated cDNA fragments were transfected into Sf9 insect cells for expression of the PDE proteins. The recombinant PDE3Acat, PDE4Bcat, PDE5Acat and PDE10A1 proteins were isolated from culture supernatant or cell extracts of Sf9 cells expressed high levels of these proteins by ion-exchange chromatography and used for the following experiments.
(§2) 4 mmol/L solution of each test compound was serially diluted 4-fold with 15% DMSO solution to prepare the solutions with concentrations of 15 nmol/L to 4 mmol/L (final concentrations=1.5 nmol/L-400 μmol/L). 10 μL of each test compound solution was added to each well of 96 plate with 10 μL of [^3H]-cAMP or [^3H]-cGMP solution, diluted with a buffer (40 mmol/L Tris-HCl (pH 7.4), 10 mmol/L MgCl2) to the concentration shown in Table 20 and 40 μL of each of the human recombinant PDE proteins in units shown in Table 20. The plate was incubated at 30° C. for 20 min, and then at 65° C. for 2 min. Subsequently, 25 μL of 1 mg/mL 5′-nucleotidase (Crotalus atrox venom, Sigma) was added to each well and the plate was incubated at 30° C. for 10 min. 200 μL of Dowex solution (300 mg/mL Dowex 1×8-400 (Sigma Aldrich), 33% ethanol) was then added to each well and the plate was shaken at 4° C. for 20 min. Subsequently, 200 μL of MicroScint 20 (Packard) was added to each well and the radioactivity of each sample was measured by a scintillation counter (Topcount, Packard) IC50 was calculated by GraphPad Prism v3.03 (GraphPad Software).

Data set [1] concerns the target T2, PDE3A catalytic domain (PDE3Acat) (Homo sapiens, UniProt Q14432).
T2 construct: cDNA fragments of PDE3A catalytic domain (indicated as “cat,” hereinafter); made in house; host or cells: Sf9 insect cells (baculovirus, Bac-to-Bac)
Briefly: Inhibition of phosphodiesterase activity, [3H]-cAMP hydrolysis, recombinant PDE3Acat. Type of data set: biochemical. Conditions: cAMP 2 μmol/L. The procedure:
as §1, §2

Another data set deals with T3, PDE4Bcat (Homo sapiens, UniProt Q07343).
T3 construct: catalytic domain (indicated as “cat,” hereinafter), PDE4Bcat; made in house; host or cells: Sf9 insect cells (baculovirus, Bac-to-Bac)
Description: Inhibition of phosphodiesterase activity, [3H]-cAMP hydrolysis, recombinant PDE4Bcat. The following applies: cAMP 2 μmol/L, read-out: IC50(μmol/L) PDE4. It counts as biochemical. How it is done: as §1, §2

For data set [2], the system named is histamine-induced bronchoconstriction. Briefly: Histamine-induced bronchoconstriction in guinea pigs. The following applies: Cavia porcellus, iv, 0.5 min, 30 seconds after administration, histamine 12.5 μg/kg i.v.; for inhibition in vivo at 1 mg/kg: test compound 1 mg/kg i.v.; for inhibition in vivo at 0.1 mg/kg: values in brackets: test compound 0.1 mg/kg, i.v. It counts as in vivo, guinea pig. How it is done: Guinea pigs were anesthetized with pentobarbital (30 mg/kg, i.p.). A cannula for IV administeration, a cannula for collecting blood and measurement of blood pressure and a trachea cannula were inserted into the left exterior jugular vein, right interior carotid artery and trachea, respectively. The animals were placed under artificial respiration at 60 times/min and 10 mL/kg/stroke. The airflow through the branch of the tracheal cannula was measured by a bronchospasm transducer (Ugo-Basile) and recorded on a computer via Power Lab (ADInstruments Japan). The animals were immobilized with gallamine (10 mg/kg, i.v.), then administered histamine at 10-minute intervals (12.5 μg/kg, i.v.). […] To examine the inhibitory activity of test compound, the histamine-induced bronchoconstriction was measured after 30 seconds of drug administration. The bronchoconstriction was recorded as the change of the airflow: The results were shown by percentages of the maximum histamine-induced bronchoconstriction. Each test compound was prepared as a 10 mg/mL solution in DMSO. Gallamine was prepared as a 10 mg/mL solution in physiological saline. Histamine was prepared as a 1 mg/mL solution in physiological saline, which was diluted with physiological saline to 62.5 μg/mL for use.

For the next data set, the target named is PDE5Acat (Homo sapiens, UniProt O76074). Description: Inhibition of phosphodiesterase activity, [3H]-cGMP hydrolysis, recombinant PDE5Acat. Type of data set: biochemical. Conditions: cGMP 2 μmol/L, read-out: IC50(μmol/L) PDE5. How it is done:
as §1, §2

Data set [3] has as its system isolated guinea pig tracheal smooth muscles. Briefly: Relaxant effect on histamine-induced contraction of isolated guinea pig tracheal smooth muscles. The following applies: Cavia porcellus; histamine 10^-5 mol/L contraction, relaxation as % of maximum response to papaverine 10^-4 mol/L; read-out: IC50(μmol/L), concentration required to 50% relaxation. How it is done:
Guinea pigs were exsanguinated and the trachea was immediately isolated and cut into 2 to 3 cartilage ring segments to prepare tracheal ring preparations. The tracheal rings were suspended in 10 mL of Tyrode's solution bubbled with a gaseous mixture of 95% O2+5% CO2 at 37° C. The composition of the Tyrode's solution (mM) was as follows: NaCl 136.9, KCl 2.7, CaCl2 1.8, MgCl2 1.0, NaH2PO4 0.4, NaHCO3 11.9 and Gucose 5.6. The contractile response was measured by an isometric transducer (UM-203, KISHIMOTO) and recorded on a recorder ([…] SERVOCORDER SR6221). After about 1 hour incubation with 1.5 g of resting tention, histamine (10^−5 mol/L) was added to induce the contractile response. After confirming the response, the preparations were washed with Tyrode's solution (10 mL×3). Then indomethacin (10^−5 mol/L) was applied and the preparations were equilibrated for at least 30 min under 1.5 g tension. Subsequently, histamine (10^−5 mol/L) was applied. After the contraction reached a steady state, each compound was added in a cumulative manner (10^−8 mol/L-3×10^−5 mol/L). Each compound was prepared as a 10^−1 mol/L solution in DMSO, which was diluted with distilled water for use. After addition of test compounds, papaverine (10^−4 mol/L) was added to determine the maximum relaxation of the preparation. Relaxant response of test compounds were expressed as a percentage of the maximum response to papaverine. IC50 was defined as a concentration of the compound required to 50% relaxation. DMSO was used as a control.

The mark [4] stands for this setting: IC50(μmol/L) PDE3, human recombinant PDE3Acat.
Setting [5] is: human recombinant PDE3Acat, read-out: IC50(μmol/L) PDE3.

The structures appear in SMILES notation. Like-named read-outs stand apart in the source and are kept apart here.

T2 sequence (Q14432 674-1093 limits assumed): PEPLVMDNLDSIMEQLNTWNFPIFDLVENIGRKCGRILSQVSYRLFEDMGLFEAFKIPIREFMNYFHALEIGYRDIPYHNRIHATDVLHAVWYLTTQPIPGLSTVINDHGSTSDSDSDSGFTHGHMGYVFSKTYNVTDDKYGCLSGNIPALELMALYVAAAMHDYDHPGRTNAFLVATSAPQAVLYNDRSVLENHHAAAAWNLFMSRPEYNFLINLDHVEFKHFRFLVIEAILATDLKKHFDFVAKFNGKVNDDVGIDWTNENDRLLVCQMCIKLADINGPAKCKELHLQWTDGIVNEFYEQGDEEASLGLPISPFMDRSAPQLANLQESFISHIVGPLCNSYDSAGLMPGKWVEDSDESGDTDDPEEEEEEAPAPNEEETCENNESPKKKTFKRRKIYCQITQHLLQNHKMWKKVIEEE
T1 sequence (Q9Y233 1-779 isoform Q9Y233-1): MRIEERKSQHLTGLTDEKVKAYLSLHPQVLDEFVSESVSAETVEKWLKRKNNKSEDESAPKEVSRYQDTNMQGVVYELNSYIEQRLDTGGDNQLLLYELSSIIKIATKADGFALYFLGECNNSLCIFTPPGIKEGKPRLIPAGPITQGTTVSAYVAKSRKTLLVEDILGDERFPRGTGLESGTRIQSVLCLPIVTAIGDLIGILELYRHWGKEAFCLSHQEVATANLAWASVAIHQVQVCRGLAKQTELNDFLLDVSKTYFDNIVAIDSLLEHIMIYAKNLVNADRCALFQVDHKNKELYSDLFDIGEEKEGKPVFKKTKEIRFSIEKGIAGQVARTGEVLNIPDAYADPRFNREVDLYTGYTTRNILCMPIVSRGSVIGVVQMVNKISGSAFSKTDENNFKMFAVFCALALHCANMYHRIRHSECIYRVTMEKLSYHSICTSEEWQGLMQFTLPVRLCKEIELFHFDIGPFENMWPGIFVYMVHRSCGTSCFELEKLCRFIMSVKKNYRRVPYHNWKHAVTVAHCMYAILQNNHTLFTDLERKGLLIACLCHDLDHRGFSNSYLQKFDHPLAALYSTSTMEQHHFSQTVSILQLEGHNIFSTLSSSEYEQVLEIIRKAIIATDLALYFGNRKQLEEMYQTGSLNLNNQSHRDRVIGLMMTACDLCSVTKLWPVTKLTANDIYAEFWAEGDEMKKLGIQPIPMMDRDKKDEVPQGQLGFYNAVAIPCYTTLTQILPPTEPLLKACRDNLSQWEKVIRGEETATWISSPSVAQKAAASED
T3 sequence (Q07343 330-659 limits assumed): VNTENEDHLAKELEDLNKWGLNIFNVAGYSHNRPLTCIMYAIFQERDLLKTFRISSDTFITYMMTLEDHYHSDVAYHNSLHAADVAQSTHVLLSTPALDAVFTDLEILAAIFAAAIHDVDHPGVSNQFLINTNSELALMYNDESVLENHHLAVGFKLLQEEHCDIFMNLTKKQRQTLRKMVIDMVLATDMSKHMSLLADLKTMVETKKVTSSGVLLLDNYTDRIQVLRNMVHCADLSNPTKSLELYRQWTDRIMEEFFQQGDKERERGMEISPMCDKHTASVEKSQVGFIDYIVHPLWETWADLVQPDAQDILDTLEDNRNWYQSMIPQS

As for `CCc1cc2c(C3=NNC(=O)CC3C)ccc(OC)n2n1` (stereo not drawn) [Example 216], the IC50 at PDE10A1 was 1 to 10 µmol/L; in data set [1] (setting [4]), over 10 µmol/L; on PDE4Bcat it was 0.1 to 1 µmol/L; at PDE5Acat, over 10 µmol/L; in data set [3], 0.65 µmol/L. The inhibition in vivo at 1 mg/kg in data set [2] is at least 90%.

Consider `CCc1cc2c(C3=NNC(=O)CC3C)cccn2n1` (stereo not drawn) [Example 201], for which the melting point fell in the range of 231 to 233 °C. The IC50 on PDE10A1 was in the range of 1 to 10 µmol/L. Moreover, the IC50 in data set [1] (setting [5]) is 1 to 10 µmol/L. In addition, the IC50 on PDE4Bcat was over 10 µmol/L. Besides, the inhibition in vivo at 1 mg/kg in data set [2] was at least 90%. Further, on PDE5Acat, the IC50 is over 10 µmol/L. In addition, the IC50 in data set [3] was 0.93 µmol/L.

In turn, `CCc1cc2c(-c3n[nH]c(=O)cc3C)cccn2n1` [Example 305] gave a melting point of 229 to 231 °C.

Regarding `CCc1cc2c(-c3ccc(=O)[nH]n3)cccn2n1` [Example 304], the IC50 at PDE10A1 was over 10 µmol/L; in data set [1] (setting [5]), 1 to 10 µmol/L; at PDE4Bcat, over 10 µmol/L; on PDE5Acat, over 10 µmol/L; in data set [3] it was 0.89 µmol/L. For the same molecule, the inhibition in vivo at 1 mg/kg in data set [2] was at least 90%.

As to `COc1ccc(C2=NNC(=O)CC2C)c2cc(C(F)(F)F)nn12` (stereo not drawn) [205(211), 6-(7-methoxy-2-trifluoromethyl-pyrazolo[1,5-a]pyridine-4-yl)-4,5-dihydro-5-methyl-3-(2H)-pyridazinone], the IC50 at PDE10A1 was 1 to 10 µmol/L; in data set [1] (setting [5]), 1 to 10 µmol/L; on PDE4Bcat, under 1 µmol/L; on PDE5Acat, over 10 µmol/L; in data set [3], 0.3 µmol/L. For the same molecule, the inhibition in vivo at 0.1 mg/kg in data set [2] is at least 90%.

On to `CCc1cc2c(C3=NNC(=O)CC3C)ccc(OC)n2n1` (single isomer, unassigned; (-)) [Example 316, (−)-6-(2-ethyl-7-methoxy-pyrazolo[1,5-a]pyridine-4-yl)-5-methyl-4,5-dihydro-3-(2H)-pyridazinone], for which the IC50 at PDE10A1 is over 10 µmol/L; in data set [1] (setting [4]), over 10 µmol/L; on PDE4Bcat, under 1 µmol/L; on PDE5Acat it was over 10 µmol/L; in data set [3] it was 0.676 µmol/L.

Take `COc1ccc(C2=NNC(=O)CC2C)c2cc(C(F)(F)F)nn12` (single isomer, unassigned; (+)) [Example 317, (+)-6-(7-methoxy-2-trifluoromethyl-pyrazolo[1,5-a]pyridine-4-yl)-5-methyl-4,5-dihydro-3-(2H)-pyridazinone]: the IC50 on PDE10A1 was 1 to 10 µmol/L; in data set [1] (setting [5]), 0.1 to 1 µmol/L; at PDE4Bcat it was under 1 µmol/L; at PDE5Acat, over 10 µmol/L; in data set [3], 0.127 µmol/L. Besides, the inhibition in vivo at 0.1 mg/kg in data set [2] is at least 90%.

In turn, `CCc1cc2c(C3=NNC(=O)CC3C)cc(Cl)cn2n1` (stereo not drawn) [Example 311, 6-(6-chloro-2-ethyl-pyrazolo[1,5-a]pyridine-4-yl)-5-methyl-4,5-dihydro-3-(2H)-pyridazinone] yielded a melting point of 172 to 174 °C. Moreover, in data set [3], the IC50 was 2 µmol/L.

As to `CCc1cc2c(C3=NNC(=O)CC3C)cc(Cl)cn2n1` (single isomer, unassigned; (+)) [Example 313, (+)-6-(6-chloro-2-ethyl-pyrazolo[1,5-a]pyridine-4-yl)-5-methyl-4,5-dihydro-3-(2H)-pyridazinone], the IC50 on PDE10A1 was 0.1 to 1 µmol/L; in data set [1] (setting [5]) it was 1 to 10 µmol/L; on PDE4Bcat, 1 to 10 µmol/L; at PDE5Acat, over 10 µmol/L; in data set [3] it was 0.5 µmol/L. The molecule further came in with an inhibition in vivo at 1 mg/kg in data set [2] of at least 90%.
